Source: patent US20180110824A1, “Macrocyclic Modulators of the Ghrelin Receptor” (Ocera Therapeutics, Inc., priority 2016, published 2018)
Where two headings read alike, the source gives them in different places.

Key:
motilin receptor = motilin receptor (Homo sapiens, UniProt O43193); assay: Selectivity for the ghrelin receptor versus the motilin receptor; format: binding
Excerpt: The level of agonist activity and selectivity for representative compounds of the invention are shown below in Table 4.

[1] = target: T1, human ghrelin receptor (hGHS-R1a) (Homo sapiens, UniProt Q92847); assay: Aequorin functional assay (ghrelin receptor), CHO-K1 cells co-expressing Gα16 and aequorin; format: cell-based; settings: Table 4; functional (agonist) activity; TFA salts unless otherwise noted; read-out: EC50
T1 construct: host or cells: CHO-K1 co-expressing Gα16 and mitochondrially targeted aequorin
Method: This cell line is typically constructed by transfection of the human ghrelin receptor into CHO-K1 cells co-expressing Gα16 and the mitochondrially targeted Aequorin (Ref #ES-WT-A5). • 1. […] Assay buffer: DMEM (Dulbecco's Modified Eagles Medium) containing 0.1% BSA (bovine serum albumin; pH 7.0). • 3. Coelenterazine (Molecular Probes, Leiden, The Netherlands). • Final test concentrations (N=8) for compounds of the invention: 10, 1, 0.3, 0.1, 0.03, 0.01, 0.003, 0.001 μM.
Stock solutions of compounds (10 mM in 100% DMSO) were provided frozen on dry ice and stored at −20° C. prior to use. […] Assay plates were then prepared by appropriate dilution in DMEM medium containing 0.1% BSA. Under these conditions, the maximal final DMSO concentration in the assay was <0.6%.
AequoScreen™ cells were collected from culture plates with Ca^2+ and Mg^2+-free phosphate buffered saline (PBS) supplemented with 5 mM EDTA, pelleted for 2 min at 1000×g re-suspended in DMEM—Ham's F12 containing 0.1% BSA at a density of 5×10^6 cells/mL, and incubated O/N at rt in the presence of 5 μM coelenterazine. After loading, cells were diluted with assay buffer to a concentration of 5×10^5 cells/mL.
For agonist testing, 50 μL of the cell suspension was mixed with 50 μL of the appropriate concentration of test compound or ghrelin (reference agonist) in 96-well plates (duplicate samples). Ghrelin (reference agonist) was tested at several concentrations concurrently with the test compounds in order to validate the experiment. The emission of light resulting from receptor activation in response to ghrelin or test compounds was recorded using the Hamamatsu FDSS 6000 reader (Hamamatsu Photonics K.K., Japan).
Results were expressed as Relative Light Units (RLU). […] EC50, Hill slope and % Emax values are reported.
• 1. Assay performed on CHO-K1 cells expressing the transfected, cloned human ghrelin receptor (hGHS-R1a) and Gα16. • 2. Suspended cells incubated O/N with coelenterazine. • 3. Stimulation of hGHS-R1a activates Gα16, causing […] Ca2+ release which ultimately leads to the oxidation of coelenterazine and the emission of a quantitative luminescent signal. • 4. Ghrelin was used as the positive control. • 5.

[2] = target: T2, human growth hormone secretagogue receptor (hGHS-R1a) (Homo sapiens, UniProt Q92847); assay: Competitive radioligand binding assay (ghrelin receptor), [125I]-ghrelin displacement on GHS-R/HEK 293 membranes;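 on Binding Activity at the Human Ghrelin Receptor (Ki): symbols B 10-100 nM C 0.1-1 µM D 1-10 µM F above 1 µM G above 10 µM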
T2 construct: purchased PerkinElmer BioSignal #RBHGHSM; host or cells: HEK-293, stably transfected

[3] = Binding activity at the human ghrelin receptor, [125I]-ghrelin displacement, read-out: Ki
[4] = Table 4, TFA salts unless otherwise noted, read-out: Ki
[5] = [125I]-ghrelin displacement, GHS-R/HEK 293 membranes, class symbols, read-out: Binding Activity at the Human Ghrelin Receptor (Ki)
[6] = Table 3B, binding activity at the human ghrelin receptor, read-out: Ki

T1 sequence (Q92847 whole entry): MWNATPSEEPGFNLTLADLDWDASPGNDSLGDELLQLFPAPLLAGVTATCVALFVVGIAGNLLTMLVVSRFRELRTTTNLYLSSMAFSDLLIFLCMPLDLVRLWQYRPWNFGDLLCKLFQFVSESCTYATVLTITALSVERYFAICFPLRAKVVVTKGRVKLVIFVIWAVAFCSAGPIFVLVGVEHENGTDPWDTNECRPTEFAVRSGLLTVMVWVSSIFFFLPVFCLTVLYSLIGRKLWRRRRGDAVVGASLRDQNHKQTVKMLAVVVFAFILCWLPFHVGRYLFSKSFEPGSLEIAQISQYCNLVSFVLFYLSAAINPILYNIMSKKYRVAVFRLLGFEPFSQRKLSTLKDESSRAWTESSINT
T2 sequence (Q92847 whole entry): as above
Sequence of motilin receptor (O43193 whole entry, species assumed): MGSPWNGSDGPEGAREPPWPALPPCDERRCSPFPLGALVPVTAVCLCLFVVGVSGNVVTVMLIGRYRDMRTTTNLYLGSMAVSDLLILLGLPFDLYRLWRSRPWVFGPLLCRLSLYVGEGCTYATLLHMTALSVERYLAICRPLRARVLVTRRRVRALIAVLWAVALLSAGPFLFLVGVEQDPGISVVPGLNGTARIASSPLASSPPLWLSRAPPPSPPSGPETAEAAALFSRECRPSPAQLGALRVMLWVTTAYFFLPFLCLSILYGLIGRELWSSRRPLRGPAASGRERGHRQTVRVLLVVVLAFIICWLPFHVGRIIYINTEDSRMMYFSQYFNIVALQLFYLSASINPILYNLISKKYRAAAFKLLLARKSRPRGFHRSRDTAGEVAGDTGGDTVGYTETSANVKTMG

Compound	EC50 [1]	Ki [2, 3]	Ki [2, 4]	also measured
CCC(C)C1NCCOc2ccccc2C2CC2CNC(=O)C(Cc2cccc(Cl)c2)NC(=O)C2(CCCC2)NC1=O (stereo not shown) [compound 388]				Selectivity (motilin receptor): 400/1
CC(C)C[C@@H]1NCCOc2ccccc2/C=C/CNC(=O)[C@H](CC(C)C)NC(=O)C2(CCCC2)NC1=O [compound 47]	1 to 100 nM	100 to 1000 nM	100 to 1000 nM	
CC(C)C[C@@H]1NCCOc2ccccc2CCCNC(=O)[C@H](Cc2ccccc2)NC(=O)C2(CC2)NC1=O [compound 111]	100 to 1000 nM	100 to 1000 nM	10 to 100 nM	
COc1ccc(C[C@@H]2NC(=O)C3(CCCC3)NC(=O)[C@H](CC(C)C)NCCOc3ccccc3/C=C/CNC2=O)cc1 [compound 156]	1 to 100 nM		10 to 100 nM	Ki [2, 5]: 10 to 100 nM
CCC(C)C1NCCOc2ccccc2CCCNC(=O)C(Cc2ccccc2)NC(=O)C(C)N(CC)C1=O (stereo not shown) [compound 43]				Selectivity (motilin receptor): 3700/1
C[C@@H]1C(=O)N[C@H](Cc2ccc(Cl)cc2)C(=O)NCCCc2ccccc2OCCN[C@@H](C2CC2)C(=O)N1C [compound 299]	1 to 100 nM		0.1 to 10 nM	Ki [2, 6]: 0.1 to 10 nM
C[C@@H]1C(=O)N[C@H](Cc2ccccc2)C(=O)NCCCc2ccccc2OCCN2CCCC[C@H]2C(=O)N1C [compound 226]	> 1000 nM		10 to 100 nM	Ki ([2]; Table 3E, read-out: Ki): 10 to 100 nM; Ki [2, 5]: 10 to 100 nM
CCC(C)[C@@H]1NC[C@@H](C)Oc2ccccc2CCCNC(=O)[C@@H](Cc2ccccc2)NC(=O)[C@@H](C)N(C)C1=O (stereo partly shown) [compound 36]	100 to 1000 nM	10 to 100 nM		
C[C@@H]1C(=O)N[C@H](Cc2c(F)c(F)c(F)c(F)c2F)C(=O)NCCCc2ccccc2OCCN[C@@H](C2CC2)C(=O)N1C [compound 318]	1 to 100 nM		0.1 to 10 nM	Ki [2, 6]: 0.1 to 10 nM
CC(C)[C@@H]1NCCOc2ccccc2CCCNC(=O)[C@@H](Cc2ccccc2)NC(=O)CN(C)C1=O [Compound 3]	100 to 1000 nM	100 to 1000 nM	100 to 1000 nM	
CCC(C)C1NCCOc2ccccc2CCCNC(=O)C(Cc2ccccc2)NC(=O)C(C)NC1=O (stereo not shown) [compound 2]	100 to 1000 nM	100 to 1000 nM	100 to 1000 nM	
CCC(C)[C@@H]1NC[C@@H](C)Oc2ccccc2CCCNC(=O)[C@@H](Cc2ccccc2)NC(=O)[C@@H](C)N(C)C1=O (stereo partly shown) [compound 35]	1 to 100 nM	10 to 100 nM	10 to 100 nM	
C[C@@H]1C(=O)N[C@H](Cc2ccc(F)cc2)C(=O)NCC#Cc2ccccc2OCCN[C@@H](C2CC2)C(=O)N1C [compound 354]	1 to 100 nM		10 to 100 nM	Ki [2, 6]: 10 to 100 nM
CCC(C)[C@@H]1NC[C@@H](C)Oc2ccccc2CCCNC(=O)[C@H](Cc2cccc(Cl)c2)NC(=O)C2(CCCC2)NC1=O (stereo partly shown) [368a]	> 1000 nM		0.1 to 10 nM	Ki [2, 6]: 10 to 100 nM
CC(C)C[C@@H]1NCCOc2ccccc2CCCNC(=O)[C@@H](Cc2ccccc2)NC(=O)C2(CCCC2)NC1=O [compound 97]	100 to 1000 nM	100 to 1000 nM	10 to 100 nM	
CCC[C@@H]1NCCOc2ccccc2CCCNC(=O)[C@@H](Cc2ccccc2)NC(=O)CN(CC)C1=O [compound 5]	100 to 1000 nM	100 to 1000 nM	100 to 1000 nM	
CC1CNC(C2CC2)C(=O)N(C)C(C)C(=O)NC(Cc2ccc(F)cc2)C(=O)NCCCc2ccccc2O1 (stereo not shown) [compound 367]	1 to 100 nM		10 to 100 nM	Ki [2, 6]: 10 to 100 nM
C[C@@H]1C(=O)N[C@H](Cc2ccc(C(F)(F)F)cc2)C(=O)NCCCc2ccccc2OCCN[C@@H](C2CC2)C(=O)N1C [compound 322]	1 to 100 nM		0.1 to 10 nM	Ki [2, 6]: 0.1 to 10 nM
CC(C)[C@@H]1NCCOc2ccccc2/C=C/CNC(=O)[C@H](Cc2ccccc2)NC(=O)C2(CCOCC2)NC1=O [compound 140]	100 to 1000 nM	100 to 1000 nM	100 to 1000 nM	
CCC[C@H]1C(=O)N(C)[C@H](C)C(=O)N[C@H](Cc2ccccc2)C(=O)NCCCc2ccccc2OCCN1C(C)=O [compound 202]				Ki [2, 5]: > 10000 nM

Compound	EC50 [1]	Ki [2, 3]	Ki [2, 4]	also measured
CCC[C@@H]1NCCOc2ccccc2CCCNC(=O)[C@@H](Cc2ccccc2)NC(=O)[C@@H]2CCCN2C1=O [compound 220]				Ki ([2]; Table 3E, read-out: Ki): 1000 to 10000 nM; Ki [2, 5]: 1000 to 10000 nM
CCC[C@@H]1NCCOc2ccccc2CCCNC(=O)[C@@H](Cc2ccccc2)NC(=O)[C@@H](Cc2ccccc2)NC1=O [compound 65]		1000 to 10000 nM		
CC[C@H](C)[C@@H]1NCCCc2ccccc2CCCCNC(=O)[C@H](Cc2cccc(Cl)c2)NC(=O)C2(CCCC2)NC1=O [compound 371]				Ki [2, 6]: 10 to 100 nM
O=C1NC2(CCCC2)C(=O)N[C@@H](Cc2ccccc2)C(=O)NC/C=C/c2ccccc2OCCN[C@H]1Cc1cscn1 [compound 134]		100 to 1000 nM		
CC[C@H](C)[C@@H]1NCCOc2ccccc2CCCNC(=O)[C@@H](Cc2cscn2)NC(=O)[C@@H](C)N(C)C1=O [compound 33]		100 to 1000 nM		
CC[C@H](C)[C@@H]1NCCOc2ccccc2/C=C/CNC(=O)[C@H](Cc2cccc(C#N)c2)NC(=O)C2(CCCC2)NC1=O [compound 329]				Ki [2, 6]: 10 to 100 nM
O=C1NC2(CCCC2)C(=O)N[C@@H](Cc2ccccc2)C(=O)NCCCc2ccccc2OCCN[C@H]1CO [compound 105]		100 to 1000 nM		
CC(C)C1NCCOc2ccccc2/C=C/CNC(=O)C(Cc2ccccc2)NC(=O)C2(Cc3ccccc3C2)NC1=O (stereo not shown) [compound 142]		100 to 1000 nM		
CCC[C@@H]1NCCOc2ccccc2CCCNC(=O)[C@@H](CCC(=O)O)NC(=O)CN(C)C1=O [compound 50]		> 10000 nM		
C[C@@H]1C(=O)N[C@H](Cc2ccc(F)cc2)C(=O)NCCCc2cc(C(F)(F)F)ccc2OCCN[C@@H](C2CC2)C(=O)N1C [compound 356]				Ki [2, 6]: 100 to 1000 nM
CCCC1NCC/C=C/CCNC(=O)C(Cc2ccccc2)NC(=O)CN(C)C1=O (stereo not shown) [compound 83]		> 10000 nM		
O=C1NC2(CCCC2)C(=O)N[C@@H](Cc2ccccc2)C(=O)NCCCc2ccccc2OCCN[C@H]1Cc1ccccc1 [compound 102]		100 to 1000 nM		
CC[C@H](C)[C@@H]1NCCOCC=CCCNC(=O)[C@H](Cc2cccc(Cl)c2)NC(=O)C2(CCCC2)NC1=O [compound 360]				Ki [2, 6]: 100 to 1000 nM
CC[C@H](C)[C@@H]1NCCCCc2ccccc2CCNC(=O)[C@@H](Cc2ccccc2)NC(=O)[C@@H](C)N(C)C1=O [compound 180]				Ki [2, 5]: 100 to 1000 nM
CCC[C@@H]1NCCOc2ccccc2CCCNC(=O)[C@H](Cc2ccccc2)NC(=O)CN(C)C1=O [compound 57]		100 to 1000 nM		
O=C1NC/C=C/c2ccccc2OCCNC2(CCCCC2)C(=O)NC2(CCCC2)C(=O)N[C@H]1Cc1ccccc1 [compound 218]				Ki [2, 5]: 10 to 100 nM
CCC[C@@H]1NCCOc2ccccc2CCCNC(=O)[C@@H](Cc2ccccc2)NC(=O)[C@@H](CCCCN)NC1=O [compound 69]		> 10000 nM		
CC[C@H](C)[C@@H]1NCCOCC=CCNC(=O)[C@@H](Cc2ccccc2)NC(=O)[C@@H](C)N(C)C1=O [compound 185]				Ki [2, 5]: 100 to 1000 nM
CC(C)C[C@@H]1NCCOc2ccccc2CCCNC(=O)[C@H](Cc2ccccc2)NC(=O)[C@H]2CCCN2C1=O [compound 223]				Ki ([2]; Table 3E, read-out: Ki): 1000 to 10000 nM; Ki [2, 5]: 1000 to 10000 nM
CC1CNC(=O)[C@@H](Cc2ccc(F)cc2)NC(=O)[C@@H](C)N(C)C(=O)[C@H](C2CC2)NCCOc2ccccc2C1 (stereo partly shown) [compound 376]				Ki [2, 6]: 100 to 1000 nM
